PMC3553236 (Biochemical pharmacology, 2012)
Read-outs that look alike come from different tables or passages of the source.

What was measured:
pcDNA-HEK293 cells = test: Cytotoxicity / MDR reversal assay, pcDNA-HEK293; assay type: cell-based; settings: Homo sapiens
[1] = Cytotoxicity / MDR reversal assay, MDR19-HEK293; assay type: cell-based, human; settings: human, MDR19-HEK293 cells (ABCB1-transfected HEK293)
[2] = tested on: MDR19-HEK293 (ABCB1) cells; test: Cytotoxicity / MDR reversal assay, MDR19-HEK293; assay type: cell-based, human; settings: for R.R of doxorubicin in the presence of the treatment: MDR19-HEK293 / pcDNA-HEK293
[3] = tested on: MRP1-HEK293 (ABCC1) cells; settings: for R.R of etoposide in the presence of the treatment: MRP1-HEK293 / pcDNA-HEK293
in vitro [4] = settings: human, MRP1-HEK293 cells (ABCC1-transfected HEK293)
ABCG2 [5] = target: T1, ABCG2 (Homo sapiens, UniProt Q9UNQ0)
T1 sequence (Q9UNQ0 1-655): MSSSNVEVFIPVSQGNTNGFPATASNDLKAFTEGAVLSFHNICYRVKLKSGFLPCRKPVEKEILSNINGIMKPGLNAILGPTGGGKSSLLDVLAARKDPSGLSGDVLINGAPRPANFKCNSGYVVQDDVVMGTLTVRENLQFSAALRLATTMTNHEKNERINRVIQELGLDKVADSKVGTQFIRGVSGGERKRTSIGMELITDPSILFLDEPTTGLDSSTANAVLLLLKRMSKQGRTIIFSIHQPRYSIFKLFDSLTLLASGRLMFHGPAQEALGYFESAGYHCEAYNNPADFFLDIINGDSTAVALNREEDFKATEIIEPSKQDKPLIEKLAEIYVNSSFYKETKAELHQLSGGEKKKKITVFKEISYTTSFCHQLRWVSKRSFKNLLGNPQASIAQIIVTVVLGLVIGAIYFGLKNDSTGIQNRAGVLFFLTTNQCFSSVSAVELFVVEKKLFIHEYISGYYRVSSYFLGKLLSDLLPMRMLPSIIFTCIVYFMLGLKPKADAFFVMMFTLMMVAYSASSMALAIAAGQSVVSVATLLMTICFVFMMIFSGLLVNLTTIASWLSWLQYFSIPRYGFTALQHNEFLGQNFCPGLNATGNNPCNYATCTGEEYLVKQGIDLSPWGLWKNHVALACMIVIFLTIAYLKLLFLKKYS

A375-G2 cells = test: cells; assay type: cell-based, human; settings: for IC50: Homo sapiens, A-375
[6] = tested on: R482-HEK293 (ABCG2) cells; test: in vitro; assay type: cell-based, human; settings: for R.R (relative resistance): IC50 R482-HEK293 / IC50 pcDNA-HEK293, drug alone
[7] = tested on: BRAF(V600E) mutant A375 melanoma cells; test: cells; assay type: cell-based, human
in vitro [8] = assay type: cell-based, human; settings: human, R482-HEK293 cells (ABCG2-transfected HEK293)
CORL-23/P cells = test: Cytotoxicity assay; assay type: cell-based; settings: Homo sapiens, COR-L23
MCF7-AdVp3000 cells = test: cells; settings: Homo sapiens
ABCG2 [9] = settings: 2 µM; ABCG2-overexpressing HEK293, MCF7-FLV1000, MCF7-AdVp3000 and S1-M1-80
CORL-23/R cells = test: cells; settings: Homo sapiens, COR-L23/R
ABCG2 [10] = settings: MCF7-FLV1000; 0.3 µM-10 µM, 72 h
ABCG2 (wild type R482) = ABCG2 (wild type R482) (Homo sapiens, UniProt Q9UNQ0); test: ABCG2-mediated mitoxantrone efflux, flow cytometry, MCF7-FLV1000
Colo-205 cells = test: Cytotoxicity assay; assay type: cell-based; settings: Homo sapiens
[11] = tested on: drug sensitive parental cells; test: Fluorescent probe accumulation in drug sensitive parental cells; assay type: cell-based, human; settings: up to 50 µM
BRAF kinase = BRAF kinase activity in A375 and A375-G2 cells; assay type: cell-based, human; settings: 0.2 – 5.0 µM, 4 h
ABCB1 [12] = target: T2, ABCB1 (Homo sapiens, UniProt P08183); test: Vi-sensitive ATPase activity of ABCB1; assay type: biochemical
T2 sequence (P08183 whole entry): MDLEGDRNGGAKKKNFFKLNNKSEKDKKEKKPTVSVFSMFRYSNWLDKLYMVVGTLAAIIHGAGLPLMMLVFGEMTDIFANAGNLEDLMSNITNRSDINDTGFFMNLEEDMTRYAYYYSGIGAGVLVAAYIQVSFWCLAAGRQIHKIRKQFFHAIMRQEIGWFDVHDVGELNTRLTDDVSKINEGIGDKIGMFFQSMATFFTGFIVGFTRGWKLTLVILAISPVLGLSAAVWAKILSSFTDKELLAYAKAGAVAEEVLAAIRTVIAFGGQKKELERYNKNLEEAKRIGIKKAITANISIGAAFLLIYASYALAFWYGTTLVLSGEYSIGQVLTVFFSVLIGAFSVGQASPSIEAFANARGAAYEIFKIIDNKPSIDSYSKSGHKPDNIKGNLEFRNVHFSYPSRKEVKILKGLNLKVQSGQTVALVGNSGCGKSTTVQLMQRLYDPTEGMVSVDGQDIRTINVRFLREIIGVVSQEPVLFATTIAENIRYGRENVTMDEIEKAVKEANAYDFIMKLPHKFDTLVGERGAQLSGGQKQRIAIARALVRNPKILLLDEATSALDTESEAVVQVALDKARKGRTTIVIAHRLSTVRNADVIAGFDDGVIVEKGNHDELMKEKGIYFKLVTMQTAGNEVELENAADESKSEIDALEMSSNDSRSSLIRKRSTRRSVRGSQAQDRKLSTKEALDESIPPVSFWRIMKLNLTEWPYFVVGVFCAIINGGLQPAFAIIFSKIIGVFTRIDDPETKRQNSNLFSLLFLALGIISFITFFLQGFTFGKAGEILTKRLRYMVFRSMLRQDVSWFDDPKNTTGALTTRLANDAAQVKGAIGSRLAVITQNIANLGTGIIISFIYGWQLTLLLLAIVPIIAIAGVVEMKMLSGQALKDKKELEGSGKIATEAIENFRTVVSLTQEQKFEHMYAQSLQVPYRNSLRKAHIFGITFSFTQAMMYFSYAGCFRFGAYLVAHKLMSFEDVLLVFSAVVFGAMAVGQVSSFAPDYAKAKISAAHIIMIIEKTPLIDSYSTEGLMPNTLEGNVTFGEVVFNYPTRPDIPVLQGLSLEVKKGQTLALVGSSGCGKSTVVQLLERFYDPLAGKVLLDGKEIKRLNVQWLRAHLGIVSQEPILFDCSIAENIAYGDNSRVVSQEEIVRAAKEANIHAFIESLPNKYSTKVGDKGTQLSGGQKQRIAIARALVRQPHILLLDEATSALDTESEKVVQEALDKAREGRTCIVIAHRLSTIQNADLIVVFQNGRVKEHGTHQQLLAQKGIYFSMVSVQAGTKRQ

KB-3-1 cells = test: Cytotoxicity assay; assay type: cell-based; settings: Homo sapiens
ABCB1 [13] = settings: KBV-1; 0.3 µM-10 µM, 72 h
MCF7-FLV1000 cells = test: cells; settings: Homo sapiens, MCF-7 FLV1000
S1 cells = test: Cytotoxicity assay; assay type: cell-based; settings: Homo sapiens
ABCB1 [14] = target: T2, ABCB1; test: ABCB1-mediated calcein-AM efflux, flow cytometry; settings: 2 µM, MDR19-HEK293 and KBV-1
ABCC1 = assay type: cell-based, human; settings: CORL-23/R; 0.3 µM-10 µM, 72 h
ABCG2 (R482G) = ABCG2 (R482G) (Homo sapiens, UniProt Q9UNQ0, R482G); test: ABCG2-mediated mitoxantrone efflux, flow cytometry, S1-M1-80
Sequence of ABCG2 (R482G) (Q9UNQ0 whole entry R482G): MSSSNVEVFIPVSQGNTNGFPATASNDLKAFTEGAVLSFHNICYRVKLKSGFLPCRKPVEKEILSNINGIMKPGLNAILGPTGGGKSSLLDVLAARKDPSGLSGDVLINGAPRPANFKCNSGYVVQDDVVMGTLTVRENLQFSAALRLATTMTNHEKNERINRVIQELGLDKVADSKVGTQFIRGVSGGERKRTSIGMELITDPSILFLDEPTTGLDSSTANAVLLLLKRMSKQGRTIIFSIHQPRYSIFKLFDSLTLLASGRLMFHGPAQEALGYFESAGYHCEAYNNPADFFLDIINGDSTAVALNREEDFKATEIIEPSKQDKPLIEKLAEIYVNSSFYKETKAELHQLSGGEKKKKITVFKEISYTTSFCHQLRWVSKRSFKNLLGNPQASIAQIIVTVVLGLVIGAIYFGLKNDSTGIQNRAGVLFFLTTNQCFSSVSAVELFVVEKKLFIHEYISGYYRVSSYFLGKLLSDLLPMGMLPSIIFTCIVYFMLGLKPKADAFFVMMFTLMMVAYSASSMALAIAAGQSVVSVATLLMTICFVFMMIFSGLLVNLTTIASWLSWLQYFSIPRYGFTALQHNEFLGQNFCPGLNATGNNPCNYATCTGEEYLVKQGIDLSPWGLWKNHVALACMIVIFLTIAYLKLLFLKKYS

MCF7 cells = test: Cytotoxicity assay; assay type: cell-based; settings: Homo sapiens
ABCB1 [15] = target: T2, ABCB1; test: [125I]IAAP photoaffinity labeling of ABCB1
KBV-1 cells = test: cells; settings: Homo sapiens, KB-V1
S1-M1-80 cells = test: cells; settings: Homo sapiens
ABCB1 [16] = target: T2, ABCB1; test: cell-based
ABCG2 [17] = target: T1, ABCG2; test: biochemical
ABCG2 (R482T) = ABCG2 (R482T) (Homo sapiens, UniProt Q9UNQ0, R482T); test: ABCG2-mediated mitoxantrone efflux, flow cytometry, MCF7-AdVp3000
Sequence of ABCG2 (R482T) (Q9UNQ0 whole entry R482T): as the sequence (Q9UNQ0 whole entry R482G) above, with G482T counted along it

ABCG2 [18] = target: T1, ABCG2; test: Vi-sensitive ATPase activity of ABCG2; assay type: biochemical
[19] = doxorubicin + treatment at 1 µM

## COc1cccc2c1C(=O)c1c(O)c3c(c(O)c1C2=O)C[C@@](O)(C(=O)CO)C[C@@H]3O[C@H]1C[C@H](N)[C@H](O)[C@H](C)O1 [Doxorubicin]
pcDNA-HEK293 cells
  IC50: 18.5 ± 8.31 nM
[1]
  IC50: 594 ± 78 nM
[2]; IC50 MDR19-HEK293 / IC50 pcDNA-HEK293, drug alone
  R.R (relative resistance): 32

## COc1cc([C@@H]2c3cc4c(cc3[C@@H](O[C@@H]3O[C@@H]5CO[C@@H](C)O[C@H]5[C@H](O)[C@H]3O)[C@H]3COC(=O)[C@H]23)OCO4)cc(OC)c1O [Etoposide]
pcDNA-HEK293 cells
  IC50: 217 ± 72 nM
[3]; IC50 MRP1-HEK293 / IC50 pcDNA-HEK293, drug alone
  R.R (relative resistance): 161
In vitro [4]
  IC50: 34900 ± 4030 nM

## COc1ccc2c3c([nH]c2c1)[C@H](C=C(C)C)N1C(=O)[C@@H]2CCCN2C(=O)[C@@H]1C3 [FTC, Fumitremorgin C]
ABCG2 [5]; A375-G2, 5 µM
  ABCG2-mediated efflux of pheophorbide A: inhibited completely
A375-G2 cells; A375-G2 / A375, mitoxantrone + treatment at 3 µM
  R.R of mitoxantrone in the presence of the treatment: 2
A375-G2 cells; A375-G2 / A375, vemurafenib + treatment at 3 µM
  R.R of vemurafenib in the presence of the treatment: 1
A375-G2 cells; A375-G2, FTC 3 µM (Table 2)
  reversal of ABCG2-mediated resistance to vemurafenib: reversed completely
[6]; R482-HEK293 / pcDNA-HEK293, mitoxantrone + treatment at 3 µM
  R.R of mitoxantrone in the presence of the treatment: 5
[6]; R482-HEK293 / pcDNA-HEK293, topotecan + treatment at 3 µM
  R.R of topotecan in the presence of the treatment: 3

## O=C1c2c(O)ccc(O)c2C(=O)c2c(NCCNCCO)ccc(NCCNCCO)c21 [Mitoxantrone]
pcDNA-HEK293 cells
  IC50: 5.3 ± 1.24 nM
A375-G2 cells
  fold more resistant, A375-G2 than parental A375 cells: over 6 fold
  IC50: 15 ± 3.48 nM
A375-G2 cells; IC50 A375-G2 / IC50 A375, drug alone
  R.R (relative resistance): 6
[7]; Homo sapiens, A-375, A375, drug alone
  IC50: 2.35 ± 0.64 nM
In vitro [8]
  IC50: 178 ± 19 nM
[6]
  R.R (relative resistance): 34

## COc1cc2c(cc1OC)CN(CCc1ccc(NC(=O)c3cc(OC)c(OC)cc3NC(=O)c3cnc4ccccc4c3)cc1)CC2 [Tariquidar]
[2]; [19]
  R.R of doxorubicin in the presence of the treatment: 3

## CC[C@@]1(O)C(=O)OCc2c1cc1n(c2=O)Cc2cc3c(CN(C)C)c(O)ccc3nc2-1 [Topotecan]
pcDNA-HEK293 cells
  IC50: 18.3 ± 4.48 nM
In vitro [8]
  IC50: 510 ± 94.5 nM
[6]
  R.R (relative resistance): 28

## CCCS(=O)(=O)Nc1ccc(F)c(C(=O)c2c[nH]c3ncc(-c4ccc(Cl)cc4)cc23)c1F [Vemurafenib]
pcDNA-HEK293 cells
  IC50: 28100 ± 6930 nM
CORL-23/P cells
  IC50: 8520 ± 1390 nM
MCF7-AdVp3000 cells
  IC50: 70000 ± 27400 nM
ABCG2 [9]
  ABCG2-mediated efflux of PhA: inhibited significantly
[2]; [19]
  R.R of doxorubicin in the presence of the treatment: 23
[2]; doxorubicin + treatment at 2 µM
  R.R of doxorubicin in the presence of the treatment: 23
[2]; doxorubicin + treatment at 5 µM
  R.R of doxorubicin in the presence of the treatment: […]
ABCG2 [5]
  ABCG2-mediated efflux of pheophorbide A: inhibited completely
CORL-23/R cells
  IC50: 8540 ± 2250 nM
ABCG2 [10]
  effect on ABCG2 protein expression level: no significant effect
ABCG2 (wild type R482)
  IC50: 1240 nM
[3]; etoposide + treatment at 1 µM
  R.R of etoposide in the presence of the treatment: 159
[3]; etoposide + treatment at 2 µM
  R.R of etoposide in the presence of the treatment: 165
[3]; etoposide + treatment at 5 µM
  R.R of etoposide in the presence of the treatment: 116
Colo-205 cells
  IC50: 118 ± 11 nM
A375-G2 cells; A375-G2 / A375, mitoxantrone + treatment at 0.02 µM
  R.R of mitoxantrone in the presence of the treatment: 2
A375-G2 cells
  IC50: […]
[11]
  effect on accumulation of fluorescent probes in drug sensitive parental cells: no effect
[7]
  IC50: […]
[7]; Homo sapiens, A-375
  IC50: […]
BRAF kinase
  inhibitory effect on p-MEK1/2, A375 versus A375-G2: comparable
BRAF kinase; A375 and A375-G2
  levels of total MEK1/2 and ERK1/2: remained unchanged
BRAF kinase; A375 and A375-G2, concentration-dependent
  levels of p-MEK1/2 and p-ERK1/2: reduced
ABCB1 [12]; higher concentrations
  inhibition of ATPase activity: ~ 50%
ABCB1 [12]; lower concentrations
  stimulation of ATPase activity above basal level: ~ 40%
KB-3-1 cells
  IC50: 14800 ± 4190 nM
ABCB1 [13]
  effect on ABCB1 protein expression level: no significant effect
[6]
  re-sensitization of R482-HEK293 cells to mitoxantrone: […]
  re-sensitization of R482-HEK293 cells to topotecan: […]
MCF7-FLV1000 cells
  IC50: 58700 ± 15800 nM
S1 cells
  IC50: 13600 ± 3840 nM
ABCB1 [14]
  effect on drug efflux mediated by ABCB1: no significant effect
ABCC1
  effect on ABCC1 protein expression level: no significant effect
ABCG2 (R482G)
  IC50: 2600 nM
MCF7 cells
  IC50: 53600 ± 9420 nM
ABCB1 [15]
  IC50: 4510 nM
In vitro [4]
  IC50: […]
KBV-1 cells
  IC50: 16900 ± 4970 nM
S1-M1-80 cells
  IC50: 14700 ± 3020 nM
ABCB1 [16]
  IC50: > 50000 nM
ABCG2 [17]
  IC50: 570 nM
ABCG2 (R482T)
  IC50: 4910 nM
ABCG2 [18]; higher concentrations
  inhibition of ATPase activity: […]
ABCG2 [18]; lower concentrations
  stimulation of ATPase activity above basal level: ~ 95%
